Test results published in patent US20230390297A1, “USE OF NUCLEOTIDE SYNTHESIS INHIBITORS FOR TARGETED THERAPY IN MLL3/4 COMPASS MUTANT CANCER” (priority 2022, published 2023).

Tests used:
[1] = test system: Mll3/4 KO mESCs; experiment: CellTiter-Glo luminescent cell viability assay in WT and Mll3/4 KO mESCs; format: cell-based, mouse; settings: 48 hours
Experimental: FIG. 3. […] (A) WT and Mll3/4 KO cells were treated with 0-2.5 μM lometrexol (LTX)−/+50 hypoxanthine (HPX) for 48 hours. CellTiter-Glo® luminescent cell viability assay was performed to determine the percentage of inhibition under these conditions. (B) WT and KO cells were treated with 0.3 μM LTX−/+50 μM HPX for 48 hours, and cells were harvested for RNA-seq. Differential gene expression analyses were performed with indicated comparisons. (C) Principal component analysis of RNA-seq in (B). (D) Hierarchical clustering heatmap showing differentially expressed genes in KO cells in comparison with WT cells.
FIG. 10. Mll3/4 KO mESCs are more sensitive to purine synthesis inhibition. (A-B) WT and Mll3/4 KO cells were treated with 0-2.5 μM lometrexol (LTX) (A) or 0-5 methotrexate (MTX) (B) for 48 hours. CellTiter-Glo® luminescent cell viability assay was performed to determine the percentage of inhibition under these conditions with three different Mll3/4 KO clones included. (C) WT and Mll3/4 KO cells were treated with 0-40 μM SHIINI for 48 hours. MTT cell viability assay was performed to determine the percentage of inhibition under these conditions with three different Mll3/4 KO clones included.

[2] = test system: BBN induced bladder cancer, MLL4 mutant tumors; experiment: BBN induced bladder cancer mouse model; format: in vivo, C57BL/6J male mice; settings: 15 mg/kg intraperitoneal twice a week for 12 weeks; Fisher's exact test, p=0.037
From the text: N-butyl-N-(4-hydroxybutyl)-nitrosamine (BBN) is a carcinogen, that mimics the tobacco use in human. When administered to C57/B6 male mice in drinking water for at least 20 weeks, causes muscle invasive bladder tumors (MIBC) (1). Besides, 70% of Kmt2d/MLL4 is mutated in BBN mouse model, mimicking high MLL4 mutation rate (and low UTX mutation rate) found in […] (1, 2). Thus, we believe that this is a valuable system where we could examine the effect of lometrexol in bladder cancer based on the MLL4 mutation stratification.
Experiment design: Thirty 7-week-old C57BL/6J male mice were used in our study to induce bladder cancer by feeding them with 0.1% BBN containing water for 6 weeks. The mice were then randomized into two groups: DMSO (n=15) or lometrexol treatment (n=15) and were given intraperitoneal injections of the respective treatments twice a week at a dose of 15 mg/kg for 12 weeks. At the end of the treatment period, the bladder tissues of the mice were harvested for H&E staining and RNA isolation. Each mouse's tumor grade was assessed, and RNA samples were analyzed for mutations in the kmt2d/MLL4 gene through mRNA-seq. Finally, we compared the MLL4 genotype and treatment to the tumor stage to assess the effectiveness of the treatment.

[3] = test system: RKO, HCT116, DLD1 (MLL4 mutant) and HT55, Caco2, SW1417 (MLL4 WT) cells; experiment: RNA-seq in colorectal cancer cells treated with LTX; format: cell-based, human; settings: 1 μM LTX, 24 hours
Experimental: FIG. 5. MLL4 mutant colorectal cancer cells are selectively sensitive to lometrexol treatment. (A) 100 μL of 0.5×10^5 cells/mL cells were seeded in 96-well plates one day before treatment. Cells were treated with 0-30 μM lometrexol (LTX) with 3× fold dilution for 72 hours. CellTiter-Glo® luminescent cell viability assay was performed to determine the percentage of inhibition under these conditions. The line plot compares sensitivity difference of all cell lines tested. (B) RKO, HCT116, DLD1, Caco2, HT55 and SW1417 cells were treated with DMSO or 1 μM LTX for 24 hours and whole cell lysates were used for western blot against cell cycle (H3 Ser10-p, CDT1, CyclinB 1, Geminin, CyclinEl, CyclinA2, p-cdc2) and apoptosis (PARP, Caspase3) markers using Hsp90 and I3-tubulin as loading control. […] (F) A subset of representative terms from the full cluster were selected and converted into a network layout. Each term is represented by a circle node, where its size is proportional to the number of input genes fall under that term, and its color represent its cluster identity. Terms with a similarity score>0.3 are linked by an edge (the thickness of the edge represents the similarity score). The network is visualized with Cytoscape with “force-directed” layout and with edge bundled for clarity. One term from each cluster is selected to have its term description shown as label.
FIG. 18. RNA-seq data in colorectal cancer cells treated with LTX. (A) Cellular morphological change in different cells treated with LTX at 1 μM for 24 hours under bring field microscope.
FIG. 19. The unique gene expression signature of MLL4 mutant cells in response to LTX treatment. (A-B) RNA-seq track examples showing the AURKA (A) and PLK1 (B) gene expression in different cell lines in response to LTX treatment. […] The 10 common genes found in the plots were defined as “lometrexol responsive mitotic gene signature” including PLK1, AURKA, CDCA3, CDC20, SFPQ, POLA1, PSRC1, KIF20A, FAM83D, and DLGAP5. (D) Volcano plots showing the 10 genes in MLL4 WT cell lines including HT55, Caco2, and SW1417.
Gene count tables were constructed using HTseq (56) with Ensembl gene annotations and used as input for edgeR 3.0.8 (57). Genes with Benjamini-Hochburg adjusted p-values less than were differentially expressed. Batch effects were removed using ComB at-seq on the raw read counts (58). Pathway analysis was performed with Metascape (59).

[4] = test system: MLL3/4 ΔSET cells; experiment: CellTiter-Glo viability assay in WT, MLL3/4 ΔSET and MLL3/4 KO cells; format: cell-based, mouse; settings: 0-2.5 μM LTX, 72 hours
From the text: FIG. 11. […] (A) Western blot showing MLL4, MLL3, NCOA6, UTX, RbBP5 and ASH2L protein levels in WT, MLL3/4 ASET and MLL3/4 KO cells with Hsp90 as the loading control. Bulk levels of histone H3K4me1, H3K4me2, H3K4me3 and H3K27Ac were also shown. N, N-terminus; C, C-terminus. mESCs harboring deletion of the SET domains of both MLL3 and MLL4 (referred to as MLL3/4 ΔSET) were generated in our previous studies (20). (B) Western blot showing nuclear and cytoplasmic MLL4, UTX, NCOA6 and RBBP5 protein levels after cell fractionation, with MLL1 and Hsp90 serving as nuclear and cytoplasmic loading control. (C) WT, MLL3/4 ΔSET and MLL3/4 KO cells were treated with 0-2.5 μM lometrexol (LTX) for 72 hours. CellTiter-Glo® luminescent cell viability assay was performed to determine the percentage of inhibition.

## Nc1nc2c(c(=O)[nH]1)C[C@@H](CCc1ccc(C(=O)N[C@@H](CCC(=O)O)C(=O)O)cc1)CN2 [lometrexol, (2S)-2-[[4-[2-[(6R)-2-amino-4-oxo-5,6,7,8-tetrahydro-3H-pyrido[2,3-d]pyrimidin-6-yl]ethyl]benzoyl]amino]pentanedioic acid]
[1]; LTX 0-2.5 μM, MTX 0-5, three Mll3/4 KO clones
  sensitivity of Mll3/4 KO cells compared with WT cells (percentage of inhibition of viability): elevated sensitivity to LTX in Mll3/4 KO cells
[1]; LTX 0-2.5 μM + 50 hypoxanthine (HPX)
  rescue of cell growth and/or viability inhibition by hypoxanthine: completely rescued by HPX
[2]
  tumor stage of mice with MLL4 mutant tumors compared with other groups: significant lowered tumor stages
[3]; MLL4 mutant vs WT cells
  differential gene expression change: only induced significant differential gene expression change in MLL4 mutant cells
[3]; remained the same in MLL4 WT cells
  PLK1 and AURKA gene expression: remarkably diminished in all MLL4 mutant cells
[3]; unaffected in MLL4 WT cells
  genes commonly downregulated in all MLL4 mutant cells (RKO, HCT116, DLD1): 885 genes
  genes commonly upregulated in MLL4 mutant cells (RKO, HCT116, DLD1): 707 genes
[4]
  sensitivity of MLL3/4 ΔSET cells compared with WT mESCs (percentage of inhibition): indistinguishable sensitivity to LTX in comparison to WT mESCs
